Like-named read-outs stand apart in the source and are kept apart here.
Assay: Pharmacokinetic experiment of memantine paroxetine cocrystal salt in rats (plasma memantine by LC-MS/MS)
Format: in vivo, SD rat
Conditions: gavage
Source text: Determination of the pharmacokinetic parameters of […] and paroxetine in rat plasma by LC-MS/MS method
The memantine paroxetine cocrystal salt prepared in embodiment 1; memantine hydrochloride; dexamethasone (Intermediate inspection office); ammonium formate; methanol is all chromatographic pure (Merck Company); formic acid is all chromatographic pure (Aladdin Company); acetonitrile is all chromatographic pure (Merck Company); experimental water is deionized purified water.
SD rat, SPF grade, male, weight 200-250 g, purchased from Zhejiang Experimental Animal Center, production license No.: SCXK (Zhejiang) 2014-0001.
Liquid mass spectrometer: Thermo Finnigan TSQ Quantum, composed of Surveyor As, Surveyor MS Pump Plus and TSQ Quantum, Thermo Fisher Scientific Company; Sartorius BP-211D electronic balance; Thermo STRATOS high speed freezing centrifuge; Eppendorf PCB-11 micro vortex mixer; Milli-Q Grandient pure water meter.
Chromatographic column: Waters Cortecs C18 (2.1 mm×50 mm, 2.7 μm); column temperature: 35° C.; mobile phase: acetonitrile-[…] ammonium formate containing 0.1% formic acid (10:90); flow rate: 0.2 mL·min^−1; sample injection volume: 5 μL.
Ion detection method: multiple reaction monitoring (MRM); ionic polarity: positive ion (Positive); ionization mode: electrospray ionization (ESI); ionization voltage (IS): 3000.0V; temperature: 300° C.; sheath gas: 35; auxiliary gas: 30.
10 rats are randomly divided into 2 groups, 5 rats in each group: group A: 5.6 mg/kg memantine hydrochloride; group B: 17.4 mg/kg cocrystal salt;
The rats are fasted for 12 h before the experiment, and the tested drugs re given by gavage with the volume of 1 mL/100 g. Before and 5, 10, 20, 40, 60, 120, 180, 240, 360 and 480 min after administration, 0.5 mL of blood is collected through the fundus vein plexus. Anticoagulate the heparin. Centrifugate at 4000 rpm for 10 min, and separate the plasma. It can be used for the determination of memantine concentration.

[1] = male SD rats, same molar dose: group A 5.6 mg/kg memantine hydrochloride, group B 17.4 mg/kg cocrystal salt, average value

CC12CC3CC(C)(C1)CC(N)(C3)C2.Fc1ccc([C@@H]2CCNC[C@H]2COc2ccc3c(c2)OCO3)cc1.O.O.O.O=S(=O)(O)O [cocrystal salt, C19H20FNO3·C12H21N·H2SO4·3H2O]
AUC(0-t) [1]: 1.982124 ng·h/mL | AUC(0-∞) [1]: 3.16723 ng·h/mL | CLz/F [1]: 94414.6 mL/min/kg | Cmax [1]: 0.449186 ng/mL | MRT(0-t) [1]: 3.298 h | MRT(0-∞) [1]: 8.1 h | T1/2z [1]: 5.605 h | Tmax [1]: 0.868 h | AUC(0-∞) ratio, cocrystal salt versus memantine hydrochloride (same molar dose, rats): 4.10 times | Cmax ratio, cocrystal salt versus memantine hydrochloride (same molar dose, rats): 1.62 times | T1/2 ratio, cocrystal salt versus memantine hydrochloride (same molar dose, rats): 2.79 times | Tmax ratio, cocrystal salt versus memantine hydrochloride (same molar dose, rats): 1.41 times

CC12CC3CC(C)(C1)CC(N)(C3)C2.Cl [memantine hydrochloride, 3,5-Dimethyl-1-aminoadamantane hydrochloride, reference compound]
AUC(0-inf) (Sprague-Dawley (SD), rat, po, male SD rats, same molar dose: group A 5.6 mg/kg memantine hydrochloride, group B 17.4 mg/kg cocrystal salt, average value): 0.773 ng·h/mL | AUC(0-t) (Sprague-Dawley (SD), rat, po, male SD rats, same molar dose: group A 5.6 mg/kg memantine hydrochloride, group B 17.4 mg/kg cocrystal salt, average value, read-out: AUC(0-t)): 0.714 ng·h/mL | Cmax (Sprague-Dawley (SD), rat, po, male SD rats, same molar dose: group A 5.6 mg/kg memantine hydrochloride, group B 17.4 mg/kg cocrystal salt, average value, read-out: Cmax): 0.276 ng/mL | MRT last (Sprague-Dawley (SD), rat, po, male SD rats, same molar dose: group A 5.6 mg/kg memantine hydrochloride, group B 17.4 mg/kg cocrystal salt, average value, read-out: MRT(0-t)): 2.43 h | MRT inf (Sprague-Dawley (SD), rat, po, male SD rats, same molar dose: group A 5.6 mg/kg memantine hydrochloride, group B 17.4 mg/kg cocrystal salt, average value, read-out: MRT(0-∞)): 3.05 h | Tmax (Sprague-Dawley (SD), rat, po, male SD rats, same molar dose: group A 5.6 mg/kg memantine hydrochloride, group B 17.4 mg/kg cocrystal salt, average value, read-out: Tmax): 0.617 h | CLz/F [1]: 123437.1 mL/min/kg | T1/2z [1]: 2.009 h
